Data taken from US20260200850A1, “CRYSTALLINE FORMS OF A PIPERIDINE INHIBITOR OF SLC6A19 FUNCTION” (Jnana Therapeutics Inc., priority 2022, published 2026).
≈ marks a conversion by molar mass, not a printed value. Blank lines part the entries; values can stand above or below the compound they belong to.

Experiment: Solubility measurements of polymorphic Form I and II in biorelevant fluids
Assay type: physicochemical
Conditions: for solubility at 1.5 h / solubility at 3 h / solubility at 24 h: thermodynamic from solid
Text: Example 3: Solubility Measurements of Form I and Form II

solubility at 1.5 h (5% HPBCD/2% TPGS, 25 °C, aqueous with cosolvent or surfactant or cyclodextrin, 1.5 h): 4960 µg/mL (≈ 11900 µM)
solubility at 3 h (5% HPBCD/2% TPGS, 25 °C, aqueous with cosolvent or surfactant or cyclodextrin, 3 h): 5110 µg/mL (≈ 12200 µM)
solubility at 24 h (5% HPBCD/2% TPGS, 25 °C, aqueous with cosolvent or surfactant or cyclodextrin, 24 h): 5280 µg/mL (≈ 12600 µM)
solubility at 1.5 h (FaSSIF, 37 °C, 1.5 h): 360 µg/mL (≈ 860 µM)
solubility at 3 h (FaSSIF, 37 °C, 3 h): 380 µg/mL (≈ 908 µM)
solubility at 24 h (FaSSIF, 37 °C, 24 h): 350 µg/mL (≈ 837 µM)
Solubility (FeSSIF, 37° C., 1.5 h): 910 µg/mL (≈ 2170 µM)
Solubility (FeSSIF, 37° C., 3 h): 900 µg/mL (≈ 2150 µM)
Solubility (FeSSIF, 37° C., 24 h): 980 µg/mL (≈ 2340 µM)
solubility at 1.5 h (SGF, 37 °C, simulated gastric fluid, 1.5 h): 400 µg/mL (≈ 956 µM)
solubility at 3 h (SGF, 37 °C, simulated gastric fluid, 3 h): 420 µg/mL (≈ 1000 µM)
solubility at 24 h (SGF, 37 °C, simulated gastric fluid, 24 h): 370 µg/mL (≈ 884 µM)
Solubility, comparison of the forms (relevant biofluids, in words): increased solubility relative to Form II
SMILES: NC(=O)N1CCC[C@@H](N(C(=O)NCc2ccc(OC(F)(F)F)cc2F)C2CC2)C1 [Form I, (R)-3-(1-cyclopropyl-3-(2-fluoro-4-(trifluoromethoxy)benzyl)ureido) piperidine-1-carboxamide]

Solubility (5% HPBCD/2% TPGS, 25° C., 1.5 h): 4310 µg/mL (≈ 10300 µM)
Solubility (5% HPBCD/2% TPGS, 25° C., 3 h): 4270 µg/mL (≈ 10200 µM)
Solubility (5% HPBCD/2% TPGS, 25° C., 24 h): 4760 µg/mL (≈ 11400 µM)
Solubility (FaSSIF, 37° C., 1.5 h): 310 µg/mL (≈ 741 µM)
Solubility (FaSSIF, 37° C., 3 h): 270 µg/mL (≈ 645 µM)
Solubility (FaSSIF, 37° C., 24 h): 240 µg/mL (≈ 574 µM)
solubility at 1.5 h (FeSSIF, 37 °C, 1.5 h): 740 µg/mL (≈ 1770 µM)
solubility at 3 h (FeSSIF, 37 °C, 3 h): 720 µg/mL (≈ 1720 µM)
solubility at 24 h (FeSSIF, 37 °C, 24 h): 720 µg/mL (≈ 1720 µM)
Solubility (SGF, 37° C., 1.5 h): 260 µg/mL (≈ 621 µM)
Solubility (SGF, 37° C., 3 h): 270 µg/mL (≈ 645 µM)
Solubility (SGF, 37° C., 24 h): 300 µg/mL (≈ 717 µM)
SMILES: NC(=O)N1CCC[C@@H](N(C(=O)NCc2ccc(OC(F)(F)F)cc2F)C2CC2)C1 [Form II, (R)-3-(1-cyclopropyl-3-(2-fluoro-4-(trifluoromethoxy)benzyl)ureido) piperidine-1-carboxamide]
